Results: PubChem BioAssay AID1963852 (Molecular Pharmacology Branch, DTP, NCI, 2024)

Tested on: 282377-053-R-J1-PDC complex spheroid viability
Experiment: Anticancer human tumor 282377-053-R-J1-PDC patient-derived colon adenocarcinoma cell line growth inhibition [POLQ]
Settings: for IC50: curve of first compound; for viability, T/C: stronger effect = lower value
How it was run: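 Complex spheroid viability model combining PDC tumour cells with endothelial (HUVEC) and MSC stromal cells. Novobiocin, ART-558 or RP6685 were tested singly and in combination with standard and investigational anticancer drugs. Each was titrated in half-log steps from near clinical Cmax, or from 10 microM where Cmax was unknown.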

[1] = second compound 0.0316 µM, first compound 0.0316 µM
[2] = second compound 0.0316 µM, first compound 0.1 µM
[3] = second compound 0.0316 µM, first compound 0.316 µM
[4] = second compound 0.0316 µM, first compound 1 µM
[5] = second compound 0.0316 µM, first compound 3.16 µM
[6] = second compound 0.0316 µM, first compound 10 µM
[7] = second compound 0.1 µM, first compound 0.0316 µM
[8] = second compound 0.1 µM, first compound 0.1 µM
[9] = second compound 0.1 µM, first compound 0.316 µM
[10] = second compound 0.1 µM, first compound 1 µM
[11] = second compound 0.1 µM, first compound 3.16 µM
[12] = second compound 0.1 µM, first compound 10 µM
[13] = second compound 0.316 µM, first compound 0.0316 µM
[14] = second compound 0.316 µM, first compound 0.1 µM
[15] = second compound 0.316 µM, first compound 0.316 µM
[16] = second compound 0.316 µM, first compound 1 µM
[17] = second compound 0.316 µM, first compound 3.16 µM
[18] = second compound 0.316 µM, first compound 10 µM
[19] = second compound 1 µM, first compound 0.0316 µM
[20] = second compound 1 µM, first compound 0.1 µM
[21] = second compound 1 µM, first compound 0.316 µM
[22] = second compound 1 µM, first compound 1 µM
[23] = second compound 1 µM, first compound 3.16 µM
[24] = second compound 1 µM, first compound 10 µM
[25] = second compound 3.16 µM, first compound 0.0316 µM
[26] = second compound 3.16 µM, first compound 0.1 µM
[27] = second compound 3.16 µM, first compound 0.316 µM
[28] = second compound 3.16 µM, first compound 1 µM
[29] = second compound 3.16 µM, first compound 3.16 µM
[30] = second compound 3.16 µM, first compound 10 µM
[31] = second compound 10 µM, first compound 0.0316 µM
[32] = second compound 10 µM, first compound 0.1 µM
[33] = second compound 10 µM, first compound 0.316 µM
[34] = second compound 10 µM, first compound 1 µM
[35] = second compound 10 µM, first compound 3.16 µM
[36] = second compound 10 µM, first compound 10 µM
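Also: spheroids exposed to compounds for seven days.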
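For viability, T/C in this document: 100% = DMSO vehicle control viability.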

C#Cc1c(F)ccc2cc(O)cc(-c3ncc4c(N5CC6CCC(C5)N6)nc(OCC56CCCN5CC(F)C6)nc4c3F)c12 (stereo unspecified) + COC1C(OC(N)=O)C(O)C(Oc2ccc3c(O)c(NC(=O)c4ccc(O)c(CC=C(C)C)c4)c(=O)oc3c2C)OC1(C)C was tested, and the IC50 (second compound 0.0316 µM) was over 10 µM, the IC50 (second compound 0.1 µM) was over 10 µM and the IC50 (second compound 0.316 µM) was over 10 µM. For the same compound, the IC50 (second compound 1 µM) was over 10 µM, the IC50 (second compound 3.16 µM) was over 10 µM and the IC50 (second compound 10 µM) was over 10 µM. For the same compound, the viability, T/C [1] was 111%, the viability, T/C [2] was 115% and the viability, T/C [3] was 108%. For the same compound, the viability, T/C [4] was 117%, the viability, T/C [5] was 88.8% and the viability, T/C [6] was 96.9%. The viability, T/C [7] was 94.4%, the viability, T/C [8] was 113% and the viability, T/C [9] was 107%. For the same compound, the viability, T/C [10] was 90%, the viability, T/C [11] was 96.9% and the viability, T/C [12] was 88.1%. It also gave a viability, T/C [13] of 94%, a viability, T/C [14] of 120% and a viability, T/C [15] of 93.7%. For the same compound, the viability, T/C [16] was 91.5%, the viability, T/C [17] was 92.6% and the viability, T/C [18] was 85.6%. The viability, T/C [19] was 104%, the viability, T/C [20] was 96.5% and the viability, T/C [21] was 98.9%. It also gave a viability, T/C [22] of 82.5%, a viability, T/C [23] of 112% and a viability, T/C [24] of 87.8%. It also gave a viability, T/C [25] of 104%, a viability, T/C [26] of 88.3% and a viability, T/C [27] of 95.4%. It also gave a viability, T/C [28] of 82.3%, a viability, T/C [29] of 92.1% and a viability, T/C [30] of 87.7%. For the same compound, the viability, T/C [31] was 100%, the viability, T/C [32] was 91.2% and the viability, T/C [33] was 102%. For the same compound, the viability, T/C [34] was 93.7%, the viability, T/C [35] was 74.8% and the viability, T/C [36] was 86.8%.
Work on CC1COCCN1c1cc(-c2ccnn2C)c2ccnc(-c3ccn[nH]3)c2n1 (stereo unspecified) + COC1C(OC(N)=O)C(O)C(Oc2ccc3c(O)c(NC(=O)c4ccc(O)c(CC=C(C)C)c4)c(=O)oc3c2C)OC1(C)C yielded an IC50 (second compound 0.0316 µM) of 0.377 µM, an IC50 (second compound 0.1 µM) of 0.398 µM and an IC50 (second compound 0.316 µM) of 0.589 µM. The IC50 (second compound 1 µM) was 0.677 µM, the IC50 (second compound 3.16 µM) was 0.45 µM and the IC50 (second compound 10 µM) was 0.642 µM. The viability, T/C [1] was 107%, the viability, T/C [2] was 99.6% and the viability, T/C [3] was 52.5%. The viability, T/C [4] was 34.2%, the viability, T/C [5] was 26.9% and the viability, T/C [6] was 25.4%. It also gave a viability, T/C [7] of 95.2%, a viability, T/C [8] of 80.5% and a viability, T/C [9] of 52.7%. The viability, T/C [10] was 36.5%, the viability, T/C [11] was 33.9% and the viability, T/C [12] was 27.6%. The viability, T/C [13] was 95.6%, the viability, T/C [14] was 87.5% and the viability, T/C [15] was 59.9%. It also gave a viability, T/C [16] of 41.1%, a viability, T/C [17] of 25.9% and a viability, T/C [18] of 20.4%. For the same compound, the viability, T/C [19] was 89.1%, the viability, T/C [20] was 85.3% and the viability, T/C [21] was 68.4%. For the same compound, the viability, T/C [22] was 40%, the viability, T/C [23] was 27.4% and the viability, T/C [24] was 21.4%. The viability, T/C [25] was 102%, the viability, T/C [26] was 94.8% and the viability, T/C [27] was 57.3%. It also gave a viability, T/C [28] of 32.5%, a viability, T/C [29] of 26.5% and a viability, T/C [30] of 22.6%. It also gave a viability, T/C [31] of 121%, a viability, T/C [32] of 80.8% and a viability, T/C [33] of 66.7%. It also gave a viability, T/C [34] of 39.7%, a viability, T/C [35] of 33.3% and a viability, T/C [36] of 21.8%.
CC1COCCN1c1cc(C2(S(C)(=N)=O)CC2)nc(-c2ccnc3[nH]ccc23)n1 (stereo unspecified) + COC1C(OC(N)=O)C(O)C(Oc2ccc3c(O)c(NC(=O)c4ccc(O)c(CC=C(C)C)c4)c(=O)oc3c2C)OC1(C)C was tested, and the IC50 (second compound 0.0316 µM) was over 10 µM, the IC50 (second compound 0.1 µM) was 5.46 µM and the IC50 (second compound 0.316 µM) was 6.61 µM. It also gave an IC50 (second compound 1 µM) of 7.63 µM, an IC50 (second compound 3.16 µM) of 6.86 µM and an IC50 (second compound 10 µM) of 9.91 µM. The viability, T/C [1] was 108%, the viability, T/C [2] was 89.1% and the viability, T/C [3] was 110%. For the same compound, the viability, T/C [4] was 76.9%, the viability, T/C [5] was 74.9% and the viability, T/C [6] was 56.7%. It also gave a viability, T/C [7] of 92.4%, a viability, T/C [8] of 104% and a viability, T/C [9] of 88.5%. It also gave a viability, T/C [10] of 72.1%, a viability, T/C [11] of 61.9% and a viability, T/C [12] of 39.6%. The viability, T/C [13] was 103%, the viability, T/C [14] was 82.1% and the viability, T/C [15] was 83.6%. For the same compound, the viability, T/C [16] was 81%, the viability, T/C [17] was 80.4% and the viability, T/C [18] was 33.9%. For the same compound, the viability, T/C [19] was 115%, the viability, T/C [20] was 90.2% and the viability, T/C [21] was 91.5%. The viability, T/C [22] was 81%, the viability, T/C [23] was 79.5% and the viability, T/C [24] was 39.9%. It also gave a viability, T/C [25] of 99%, a viability, T/C [26] of 93.3% and a viability, T/C [27] of 85.3%. For the same compound, the viability, T/C [28] was 107%, the viability, T/C [29] was 59.6% and the viability, T/C [30] was 45.3%. For the same compound, the viability, T/C [31] was 104%, the viability, T/C [32] was 119% and the viability, T/C [33] was 79.8%. The viability, T/C [34] was 92.3%, the viability, T/C [35] was 66.1% and the viability, T/C [36] was 49.7%.
